In ChEMBL document CHEMBL1201862, “PubChem BioAssay data set” (2004):
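A five-concentration, 48-hour dose response in 96-well plates underlies each endpoint, interpolated linearly between surrounding concentrations. GI50 marks 50% less growth.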 Active and inactive are the calls of the source. No stated cut-off is given here; in the data, active = GI50 up to about 1.1 µM and inactive = higher.

Tests used:
Assay in all cases: NCI anticancer screen, dose series, 48 h
BT-549 = test system: BT-549
CCRF-CEM = test system: CCRF-CEM
COLO 205 = test system: COLO 205
HCT-15 = test system: HCT-15
HOP-92 = test system: HOP-92
HT-29 = test system: HT-29
Hs-578T = test system: Hs-578T
IGROV-1 = test system: IGROV-1
M14 = test system: M14
MDA-MB-231 = test system: MDA-MB-231
MDA-MB-435 = test system: MDA-MB-435
Malme-3M = test system: Malme-3M
SF-268 = test system: SF-268
SK-MEL-28 = test system: SK-MEL-28
SK-MEL-5 = test system: SK-MEL-5
SN12C = test system: SN12C
SNB-19 = test system: SNB-19
SNB-75 = test system: SNB-75
SW-620 = test system: SW-620
UO-31 = test system: UO-31

Compound | GI50 (BT-549) | GI50 (CCRF-CEM) | GI50 (COLO 205) | GI50 (HCT-15) [µM] | GI50 (HOP-92) | GI50 (HT-29) | GI50 (Hs-578T) | GI50 (IGROV-1) | GI50 (M14) | GI50 (MDA-MB-231) | GI50 (MDA-MB-435) | GI50 (Malme-3M) | GI50 (SF-268) | GI50 (SK-MEL-28) | GI50 (SK-MEL-5) | GI50 (SN12C) | GI50 (SNB-19) | GI50 (SNB-75) | GI50 (SW-620) | GI50 (UO-31)
NC(=S)SCCC(=O)O | > 100 µM (inactive) | > 100 µM (inactive) | > 100 µM (inactive) | > 100 | > 100 µM (inactive) | > 100 µM (inactive) | > 100 µM (inactive) | > 100 µM (inactive) | > 100 µM (inactive) | > 100 µM (inactive) | > 100 µM (inactive) | > 100 µM (inactive) | > 100 µM (inactive) | > 100 µM (inactive) | > 100 µM (inactive) | > 100 µM (inactive) | > 100 µM (inactive) | > 100 µM (inactive) | > 100 µM (inactive) | > 100 µM (inactive)
CCC1=[N+](CC)CCN1CC | > 100 µM (inactive) | > 100 µM (inactive) | > 100 µM (inactive) | > 100 | > 100 µM (inactive) | > 100 µM (inactive) | > 100 µM (inactive) | > 100 µM (inactive) | > 100 µM (inactive) | > 100 µM (inactive) | > 100 µM (inactive) | > 100 µM (inactive) | > 100 µM (inactive) | > 100 µM (inactive) | > 100 µM (inactive) | > 100 µM (inactive) | > 100 µM (inactive) | > 100 µM (inactive) | > 100 µM (inactive) | > 100 µM (inactive)
COCn1c2ccc(OC(C)=O)cc2c2c(=O)oc(N(C)C)nc21 | > 100 µM (inactive) | > 100 µM (inactive) | > 100 µM (inactive) | > 100 | > 100 µM (inactive) | > 100 µM (inactive) | > 100 µM (inactive) | > 100 µM (inactive) | > 100 µM (inactive) | > 100 µM (inactive) | > 100 µM (inactive) | > 100 µM (inactive) | – | > 100 µM (inactive) | > 100 µM (inactive) | > 100 µM (inactive) | > 100 µM (inactive) | > 100 µM (inactive) | > 100 µM (inactive) | –
CN(C)c1ccc2c(c1)oc(=O)c1ccccc12 | 3.44 µM (inactive) | 4.24 µM (inactive) | 12.2 µM (inactive) | 12.6 | 12.3 µM (inactive) | 10.4 µM (inactive) | 17.5 µM (inactive) | 13.7 µM (inactive) | 13 µM (inactive) | 16.5 µM (inactive) | 9.31 µM (inactive) | 11.8 µM (inactive) | 10.4 µM (inactive) | 17.5 µM (inactive) | 10.7 µM (inactive) | 12.8 µM (inactive) | 14.3 µM (inactive) | 17.8 µM (inactive) | 11.4 µM (inactive) | –
CCCCCCCCCCCCCCCCCCNC(=S)NC=C1C(=O)c2ccccc2C1=O | 15.7 µM (inactive) | 5.02 µM (inactive) | 15.7 µM (inactive) | 10.2 | 3 µM (inactive) | 11.5 µM (inactive) | 16.3 µM (inactive) | 1.4 µM (inactive) | 10.3 µM (inactive) | 10.9 µM (inactive) | 15.9 µM (inactive) | 14.7 µM (inactive) | 5.62 µM (inactive) | 16.9 µM (inactive) | 18.2 µM (inactive) | 16 µM (inactive) | 17.3 µM (inactive) | – | 11.1 µM (inactive) | 10.3 µM (inactive)
CCCC(=O)OCC1OC(n2cc(F)c(=O)[nH]c2=O)C(F)C1OC(=O)CCC (stereo not given) | 13.9 µM (inactive) | 7.64 µM (inactive) | 36.4 µM (inactive) | > 100 | 17.4 µM (inactive) | 45.4 µM (inactive) | 26.5 µM (inactive) | 58.6 µM (inactive) | 36.3 µM (inactive) | > 100 µM (inactive) | 51.5 µM (inactive) | 36.6 µM (inactive) | 8.53 µM (inactive) | > 100 µM (inactive) | 36.8 µM (inactive) | 19.2 µM (inactive) | – | 43.5 µM (inactive) | 53.6 µM (inactive) | 69.7 µM (inactive)
Cc1ccc(S(=O)(=O)NNC2(NS(=O)(=O)c3ccc(Cl)cc3)C(Cl)=C(Cl)C(=O)c3ccccc32)cc1 (stereo not given) | 14.9 µM (inactive) | 22.9 µM (inactive) | 18.1 µM (inactive) | 24.4 | 17.3 µM (inactive) | 19.1 µM (inactive) | 17.2 µM (inactive) | 14.7 µM (inactive) | 19 µM (inactive) | 19 µM (inactive) | 18.8 µM (inactive) | 17.3 µM (inactive) | 14 µM (inactive) | 25.7 µM (inactive) | 15.2 µM (inactive) | 17 µM (inactive) | 16.3 µM (inactive) | – | 26 µM (inactive) | 26.8 µM (inactive)
C1=N\CCN2CCN(CC/N=C\c3ccc(cc3)OCc3cccc(n3)COc3ccc/1cc3)CC2 | > 50 µM (inactive) | > 50 µM (inactive) | > 50 µM (inactive) | > 50 | 40.4 µM (inactive) | > 50 µM (inactive) | 32.7 µM (inactive) | > 50 µM (inactive) | > 50 µM (inactive) | > 50 µM (inactive) | > 50 µM (inactive) | 26.9 µM (inactive) | > 50 µM (inactive) | > 50 µM (inactive) | – | > 50 µM (inactive) | > 50 µM (inactive) | > 50 µM (inactive) | > 50 µM (inactive) | > 50 µM (inactive)
NC(Cc1n[nH]c2ccccc12)C(=O)O (stereo not given) | > 100 µM (inactive) | > 100 µM (inactive) | > 100 µM (inactive) | > 100 | > 100 µM (inactive) | > 100 µM (inactive) | > 100 µM (inactive) | > 100 µM (inactive) | > 100 µM (inactive) | > 100 µM (inactive) | > 100 µM (inactive) | > 100 µM (inactive) | > 100 µM (inactive) | > 100 µM (inactive) | > 100 µM (inactive) | > 100 µM (inactive) | > 100 µM (inactive) | > 100 µM (inactive) | > 100 µM (inactive) | > 100 µM (inactive)
COc1cc(OC(=O)c2ccccc2)cc2c1C(=O)C=CC2=O | 15.8 µM (inactive) | 0.543 µM (active) | 16.2 µM (inactive) | 11.9 | 2.16 µM (inactive) | 14.1 µM (inactive) | 25.1 µM (inactive) | 15.1 µM (inactive) | 14.4 µM (inactive) | 2.29 µM (inactive) | 5.65 µM (inactive) | 15.3 µM (inactive) | 16.8 µM (inactive) | 18.2 µM (inactive) | 16 µM (inactive) | 19.5 µM (inactive) | 30.6 µM (inactive) | 22.6 µM (inactive) | 8.79 µM (inactive) | 11.2 µM (inactive)
COC(=O)C1(Cc2cccc(C)c2)Cc2c(C)cccc2C1=O (stereo not given) | 56.1 µM (inactive) | 61.8 µM (inactive) | 37.2 µM (inactive) | 32.1 | 30.4 µM (inactive) | 29.6 µM (inactive) | 38.5 µM (inactive) | 46.9 µM (inactive) | 34.4 µM (inactive) | 52.8 µM (inactive) | 14.1 µM (inactive) | 33.9 µM (inactive) | 58.5 µM (inactive) | > 100 µM (inactive) | 38.5 µM (inactive) | 44.9 µM (inactive) | 98.9 µM (inactive) | 43.3 µM (inactive) | 31.4 µM (inactive) | 42.6 µM (inactive)
Clc1cc(Cl)nc(Nc2ccc3c(c2)CCC3)n1 | 48.6 µM (inactive) | 30.3 µM (inactive) | 24 µM (inactive) | 33.7 | 32.8 µM (inactive) | 22 µM (inactive) | 28.4 µM (inactive) | 16 µM (inactive) | 42.9 µM (inactive) | 51.3 µM (inactive) | 58.5 µM (inactive) | 28.6 µM (inactive) | 44.8 µM (inactive) | 37.7 µM (inactive) | 23.8 µM (inactive) | 45.4 µM (inactive) | 89.5 µM (inactive) | – | 46.6 µM (inactive) | 41.4 µM (inactive)
CC(=O)O[C@H]1CCc2c(cc(N)c3c2C(=O)C[C@]2(C)C([C@H](C)CCCC(C)C)CCC32C)C1(C)C (stereo not given in full) | > 100 µM (inactive) | > 100 µM (inactive) | > 100 µM (inactive) | > 100 | > 100 µM (inactive) | 42.2 µM (inactive) | 17.1 µM (inactive) | > 100 µM (inactive) | > 100 µM (inactive) | > 100 µM (inactive) | 86.7 µM (inactive) | > 100 µM (inactive) | > 100 µM (inactive) | > 100 µM (inactive) | > 100 µM (inactive) | > 100 µM (inactive) | > 100 µM (inactive) | > 100 µM (inactive) | > 100 µM (inactive) | > 100 µM (inactive)
CC1CC[C@]2(C(=O)O)CCC3(C)C(=C2[C@H]1C)C=CC1[C@@]2(C)CC[C@H](O)C(C)(C)C2CC[C@]13C (stereo not given in full) | 33.7 µM (inactive) | 29.7 µM (inactive) | 44.4 µM (inactive) | 27.4 | 18.7 µM (inactive) | 31.1 µM (inactive) | 26 µM (inactive) | 27.9 µM (inactive) | 44.9 µM (inactive) | 21.3 µM (inactive) | 63.1 µM (inactive) | 26.6 µM (inactive) | 27.7 µM (inactive) | 28.3 µM (inactive) | 21.4 µM (inactive) | 59.3 µM (inactive) | 30.5 µM (inactive) | 24.5 µM (inactive) | 45.9 µM (inactive) | –
CC(C)=C[C@@H]1C[C@H](C)c2c(O)cc(C)c3c2C1=C(C)C(=O)C3=O [ELISABATIN A] | 13.7 µM (inactive) | 22.4 µM (inactive) | 17.7 µM (inactive) | 13.6 | 13.4 µM (inactive) | 19.4 µM (inactive) | 19.6 µM (inactive) | 16.7 µM (inactive) | 14 µM (inactive) | 15.6 µM (inactive) | 15.6 µM (inactive) | 16 µM (inactive) | 15 µM (inactive) | 15.5 µM (inactive) | 13.6 µM (inactive) | 15 µM (inactive) | 14.4 µM (inactive) | 17.4 µM (inactive) | 16.1 µM (inactive) | –
